Data taken from patent US20110039763A1, “TARGETED ANTIMICROBIAL MOIETIES” (C3 JIAN, INC., priority 2009, published 2011).
“Also recorded” adds a separate entry of the source.

B1: PF-S003: peptide having multiple activities (peptide)
chain 1: ALALLKQDLLNFEGRGRIITSTYLQFNEGCVP
chain 2: B1 chain 1
modifications: Peptide with targeting and/or antimicrobial activity

What was measured:
microorganisms [1] = assay: Targeting peptide binding to target microorganisms (Tables 3, 10, 12); conditions: microorganism(s) the targeting peptide binds, preferably 1x PBS
microorganisms [2] = assay: Peptide activities: targeting/binding, antimicrobial, growth or phenotype altering (Tables 7, 8); format: cell-based; conditions: peptides having multiple activities
microorganisms [3] = assay: Morphology, biofilm and growth disrupting peptides (Table 5); format: cell-based; design: key: A: Peptide aggregates; B: Less hyphal formation; Clumps; Diffuse clumps and small polyps; F: Diffuse growth; H: Thin; I: Growth inhibition; Microcolony formation; Rippled; Small polyps; Thick; W: Halo formation on top, microlonies on bottom
From the text: In certain embodiments peptides that induce alterations in phenotype or other biological activities can also be used as antimicrobial effector moieties.

[4] = binding in aqueous buffers that varied with peptide solubility
[5] = binding in aqueous buffers varied with peptide solubility

Row | Molecule | Target(s) (microorganisms [1]; [4]) | Activities (microorganisms [2]) | Organism, effect: MRSA (microorganisms [3]; MRSA) | Organism, effect: S. epidermidis (microorganisms [3]; S. epidermidis) | Target(s) (microorganisms [1]; [5]) | Organism, effect: M. luteus (microorganisms [3]; M. luteus) | other results
1 | ALDCSEQSVILWYETILDKIVGVIK [PF-028] | S. epidermidis and M. luteus and MRSA | G B | MRSA (R) | S. epidermidis (M) |  |  | Organism, effect: C. jeikeium (microorganisms [3]; C. jeikeium): C. jeikeium (M)
2 | DEIKVSDEEIEKFIKENNL [PF-597] |  | G B |  |  | P. mirabilis |  | Organism, effect (microorganisms [3]; E. faecalis): E. faecalis (A)
3 | GNVHPESDFHNLIQFIKTFLYFTIFFKYFL [PF-C290] |  | G B |  |  | A. naeslundii; also recorded: F. nucleatum; also recorded: P. gingivalis; also recorded: S. mutans; also recorded: T. denticola |  | Organism, effect (microorganisms [3]; S. mutans): S. mutans (F)
4 | HCVIGNVVDIANLLKRRAVYRDIADVIKMR [PF-071] | S. epidermidis and E. coli and P. aeruginosa and C. albicans and MRSA and S. pneumoniae and E. faecalis | G B | MRSA (C) | S. epidermidis (R) |  | M. luteus (R) | Organism, effect: B. subtilis (microorganisms [3]; B. subtilis): B. subtilis (D); Organism, effect: C. albicans (microorganisms [3]; C. albicans): C. albicans (B); Organism, effect: C. jejuni (microorganisms [3]; C. jejuni): C. jejuni (A); Organism, effect: S. pneumoniae (microorganisms [3]; S. pneumoniae): S. pneumoniae (A)
5 | HKNKLNIPHIKS [PF-477] |  | G B |  |  | S. epidermidis; also recorded: M. luteus; also recorded: C. albicans; also recorded: S. pneumoniae; also recorded: C. jeikeium; also recorded: C. jejuni |  | Organism, effect (microorganisms [3]; S. pneumoniae): S. pneumoniae (H)
6 | KKFKIFVIINWFYHKYIILNFEENF [PF-C085] |  | G B |  |  | A. naeslundii; also recorded: F. nucleatum; also recorded: P. gingivalis; also recorded: S. mutans; also recorded: T. denticola |  | Organism, effect (microorganisms [3]; S. mutans): S. mutans (F)
7 | LHVIRPRPELSELKFPITKILKVNKQGLKK [PF-752] |  | G B |  |  | S. epidermidis and E. coli and MRSA and S. pneumoniae and E. faecalis |  | Organism, effect (microorganisms [3]; S. pneumoniae): S. pneumoniae (C)
8 | LIQKGLNQTFIVVIRLNNFIKKS [PF-013] | M. luteus and P. mirabilis and E. coli and P. aeruginosa and MRSA and S. pneumoniae and C. jeikeium and C. jejuni | G B | MRSA (R) | S. epidermidis (C) |  | M. luteus (D) | Organism, effect: C. jeikeium (microorganisms [3]; C. jeikeium): C. jeikeium (D)
9 | LMFFSENMDKRDTLSGKFRYFAGSKVIKLMNWLSENGK [PF-226] |  | G B |  | S. epidermidis (C) | A. baumannii | M. luteus (T) | 
10 | LNFRAENKILEKIHISLIDTVEGSA [PF-575] |  | G B |  |  | M. luteus and E. coli and C. albicans and MRSA and S. pneumoniae and E. faecalis and C. jeikeium |  | Organism, effect (microorganisms [3]; C. jeikeium): C. jeikeium (A); Organism, effect (microorganisms [3]; C. jejuni): C. jejuni (R); Organism, effect (microorganisms [3]; P. aeruginosa): P. aeruginosa (A); Organism, effect (microorganisms [3]; S. pneumoniae): S. pneumoniae (A)
11 | LSPRPIIVSRRSRADNNNDWSR [PF-143] |  | G B |  |  | S. epidermidis and MRSA and C. jeikeium |  | Organism, effect: P. aeruginosa (microorganisms [3]; P. aeruginosa): P. aeruginosa (C)
12 | MQIFYIKTKIFLSFFLFLLIFSQCFYKIEE [PF-442] |  | G B |  |  | S. epidermidis; also recorded: E. coli; also recorded: C. albicans; also recorded: S. pneumoniae; also recorded: E. faecalis |  | Organism, effect (microorganisms [3]; MRSA): MRSA (M); Organism, effect (microorganisms [3]; S. pneumoniae): S. pneumoniae (C)
13 | NTNDLLQAFELMGLGMAGVFIVLGILYIVAELLIKIFPVNN [PF-C194] |  | G B |  |  | A. naeslundii; also recorded: F. nucleatum; also recorded: P. gingivalis; also recorded: S. mutans; also recorded: T. denticola |  | Organism, effect (microorganisms [3]; F. nucleatum): F. nucleatum (T); Organism, effect (microorganisms [3]; P. gingivalis): P. gingivalis (T); Organism, effect (microorganisms [3]; S. mutans): S. mutans (F)
14 | PF-002: peptide having multiple activities (NDDAQ; Peptide with targeting and/or antimicrobial activity) | S. epidermidis; also recorded: P. mirabilis; also recorded: C. albicans; also recorded: C. jeikeium; also recorded: C. jejuni | G B |  |  |  |  | Organism, effect: B. subtilis (microorganisms [3]; B. subtilis): B. subtilis (R); Organism, effect: S. pneumoniae (microorganisms [3]; S. pneumoniae): S. pneumoniae (H)
15 | PF-003: peptide having multiple activities (MNNWIKVAQISVTVINEVIDIMKEKQNGGK; Peptide with targeting and/or antimicrobial activity) | S. epidermidis and M. luteus and P. mirabilis and C. albicans and MRSA and C. jeikeium | G B | MRSA (R) | S. epidermidis (D) |  | M. luteus (A) | Organism, effect: C. jeikeium (microorganisms [3]; C. jeikeium): C. jeikeium (A)
16 | PF-008: peptide having multiple activities (MIEIGSIAYLNGGSKKYNHILNQENR; Peptide with targeting and/or antimicrobial activity) | S. epidermidis and M. luteus and MRSA and C. jejuni | G B |  |  |  |  | Organism, effect: B. subtilis (microorganisms [3]; B. subtilis): B. subtilis (D); Organism, effect: C. jejuni (microorganisms [3]; C. jejuni): C. jejuni (R)
17 | PF-009: peptide having multiple activities (SKKYNHILNQENR; Peptide with targeting and/or antimicrobial activity) | M. luteus; also recorded: P. mirabilis; also recorded: C. albicans | G B |  | S. epidermidis (S) |  |  | 
18 | PF-010: peptide having multiple activities (MDIDVNKLLQAFVYFKSFEKLRHNNS; Peptide with targeting and/or antimicrobial activity) | S. epidermidis; also recorded: M. luteus; also recorded: E. coli; also recorded: C. albicans | G B | MRSA (R) | S. epidermidis (S) |  | M. luteus (A) | Organism, effect: C. jeikeium (microorganisms [3]; C. jeikeium): C. jeikeium (A)
19 | PF-011: peptide having multiple activities (MFCYYKQHKGDNFSIEEVKNIIADNEMKVN; Peptide with targeting and/or antimicrobial activity) | M. luteus; also recorded: E. coli; also recorded: P. aeruginosa; also recorded: S. pneumoniae; also recorded: C. jeikeium | G B | MRSA (R) |  |  |  | Organism, effect: C. jeikeium (microorganisms [3]; C. jeikeium): C. jeikeium (C)
20 | PF-015: peptide having multiple activities (SIDKRNLYNLKYYE; Peptide with targeting and/or antimicrobial activity) | E. faecalis; also recorded: C. jeikeium | G B | MRSA (W) |  |  |  | 
21 | PF-017: peptide having multiple activities (ESIIE; Peptide with targeting and/or antimicrobial activity) | E. coli | G B | MRSA (M) |  |  |  | 
22 | PF-020: peptide having multiple activities (MKIILLLFLIFGFIVVVTLKSEHQLTLFSI; Peptide with targeting and/or antimicrobial activity) | S. epidermidis and M. luteus and C. albicans and MRSA and S. pneumoniae and E. faecalis | G B | MRSA (C) | S. epidermidis (C) |  | M. luteus (C) | Organism, effect: S. mutans (microorganisms [3]; S. mutans, class symbol): S. mutans (F); Organism, effect: S. pneumoniae (microorganisms [3]; S. pneumoniae): S. pneumoniae (D)
23 | PF-021: peptide having multiple activities (FSLNFSKQKYVTVN; Peptide with targeting and/or antimicrobial activity) | S. epidermidis; also recorded: M. luteus; also recorded: P. mirabilis; also recorded: E. coli; also recorded: C. albicans; also recorded: E. faecalis; also recorded: C. jeikeium | G B | MRSA (R) | S. epidermidis (A) |  | M. luteus (A) | Organism, effect: C. jeikeium (microorganisms [3]; C. jeikeium): C. jeikeium (R)
24 | PF-024: peptide having multiple activities (DLRKAK; Peptide with targeting and/or antimicrobial activity) | M. luteus and C. albicans and MRSA and E. faecalis and C. jeikeium | G B | MRSA (M) | S. epidermidis (D) |  |  | 
25 | PF-025: peptide having multiple activities (LLIIFRLWLELKWKNKK; Peptide with targeting and/or antimicrobial activity) | S. epidermidis and M. luteus and P. mirabilis and E. coli and P. aeruginosa and MRSA and E. faecalis and C. jejuni | G B | MRSA (R) | S. epidermidis (S) |  | M. luteus (A) | Organism, effect: C. jeikeium (microorganisms [3]; C. jeikeium): C. jeikeium (A)
26 | B1 |  | G B |  |  |  |  | Organism, effect (microorganisms [3]; B. subtilis): B. subtilis (A); Organism, effect (microorganisms [3]; C. albicans): C. albicans (A); Organism, effect (microorganisms [3]; C. jeikeium): C. jeikeium (D); Organism, effect (microorganisms [3]; C. jejuni): C. jejuni (D); Organism, effect (microorganisms [3]; M. luteus): M. luteus (R); Organism, effect (microorganisms [3]; MRSA): MRSA (M); Organism, effect (microorganisms [3]; P. aeruginosa): P. aeruginosa (A); Organism, effect (microorganisms [3]; S. epidermidis): S. epidermidis (R); Organism, effect (microorganisms [3]; S. pneumoniae): S. pneumoniae (D)
